Where “and” joins values, the source holds several entries; their conditions need not be identical. Identical values can stand only once.
How the values were obtained:
[1] = Protein binding assay in fresh human serum (size exclusion spin column); conditions: 37 °C, incubation time 168 h
[2] = Stability assay in 1000-fold molar excess of EDTA solution (ITLC); assay type: physicochemical; conditions: for transchelation in EDTA solution: 1000-fold molar excess of EDTA; for % intact starting species by incubation time: competitor EDTA 1000-fold excess, 37 °C, n = 3
Procedure: (§1) Determination of the stability of [^89Zr]DFO, [^89Zr]TAFC, and [^89Zr]FSC-RGD conjugates was carried out by incubating the radioligands in PBS, 1000-fold molar excess of EDTA solution with different pH (pH 7 and pH 6; radioligand vs EDTA: 25 μM vs 25 mM) as well as in human serum for 7 days at 37 °C, respectively. At selected time points three aliquots of PBS and EDTA solution were analyzed directly via ITLC, while the three serum aliquots were mixed with 500 μL of CH3CN, vortexed, and centrifuged at 20,000 rcf for 2 min prior to analysis.

[3] = Distribution coefficient (logD), octanol/PBS; conditions: pH 7.4
[4] = Stability assay in PBS and human serum; assay type: physicochemical; conditions: period of 7 days, 37 °C; no demetalation was observed
Procedure: as §1

[5] = Transchelation study with 1000-fold molar excess of TAFC or DFO (RP-HPLC); assay type: physicochemical; conditions: for % intact starting species by incubation time: RT, n = 3
Procedure: [^89Zr]DFO and [^89Zr]TAFC (50 μL each) were mixed with a 1000-fold molar excess of either TAFC or DFO for 7 days at RT. At selected time points aliquots of the solutions were analyzed directly via RP-HPLC. ([^89Zr]DFO tR = 4.8 min; [^89Zr]TAFC tR = 5.9 min). The transchelation was determined by the ratio of [^89Zr]DFO and [^89Zr]TAFC. Three replicates were analyzed for each radioligand.

[6] = Biodistribution of [^89Zr]TAFC in healthy mice; assay type: in vivo, BALB/c mice; conditions: normal mice, i.v., 6 h p.i., n = 4
Procedure: For the evaluation of biodistribution, four healthy female BALB/c mice (Charles River Laboratories, Sulzfeld, GER) were intravenously injected with [^89Zr]TAFC (∼1.5 MBq/mouse, ∼4 μg of precursor) into the tail vein and sacrificed at 6 h postinjection (p.i.). For the evaluation of tumor uptake of [^89Zr]FSC(succ-RGD)3 female, athymic BALB/c nude mice (Charles River Laboratories) were used. For the induction of tumor xenografts mice were injected subcutaneously with 5 × 10^6 αvβ3 integrin positive M21 cells into the right hind limb and with 5 × 10^6 αvβ3 integrin negative M21-L cells (negative control) into the left hind limb of the same mouse (n = 4). The tumors were allowed to grow until they had reached a volume of 0.3 to 0.6 cm^3. On the day of the experiment [^89Zr]FSC(succ-RGD)3 (∼0.5 MBq/mouse, ∼0.5 μg of peptide) was intravenously injected in the lateral tail vein. Mice were sacrificed by cervical dislocation at 1, 2, and 4 h after injection. Organs (spleen, pancreas, stomach, intestine, kidney, liver, heart, and lung), blood, muscle tissue, bone, and tumors were dissected and weighted. As a comparison, four tumor-bearing mice were intravenously injected in the tail vein with [^68Ga]FSC(succ-RGD)3 (∼0.5 MBq/mouse, ∼0.5 μg of precursor) and sacrificed at 1 h p.i. Activity of the different samples was measured in the gamma counter. Results were expressed as percentage of injected dose per gram tissue (% ID/g).

SMILES	protein binding (%) [1] [%]	transchelation in EDTA solution ([2]; pH 7, after 7 days, ITLC)	% intact starting species by incubation time ([2]; pH 6, 1 h) [%]	% intact starting species by incubation time ([2]; pH 6, 4 h) [%]	% intact starting species by incubation time ([2]; pH 6, 1 d) [%]	% intact starting species by incubation time ([2]; pH 6, 3 d) [%]	% intact starting species by incubation time ([2]; pH 6, 5 d) [%]	% intact starting species by incubation time ([2]; pH 7, 1 h) [%]	% intact starting species by incubation time ([2]; pH 7, 4 h) [%]	% intact starting species by incubation time ([2]; pH 7, 1 d) [%]	% intact starting species by incubation time ([2]; pH 7, 3 d) [%]	% intact starting species by incubation time ([2]; pH 7, 5 d) [%]	% intact starting species by incubation time ([2]; pH 7, 7 d) [%]	logD [3]	stability in PBS and human serum [4]	other results
CC(=O)N(O)CCCCCNC(=O)CCC(=O)N(O)CCCCCNC(=O)CCC(=O)N(O)CCCCCN [[^89Zr]DFO, desferrioxamine B, metal not drawn, reference compound]	8.7 ± 1.0	~60%	94.6 ± 0.4	63.5 ± 3.6	38.2 ± 8.4	6.4 ± 2.0	6.0 ± 1.8	95.5 ± 0.5	76.0 ± 1.0	55.4 ± 3.2	41.0 ± 5.2	43.3 ± 2.5	42.2 ± 2.3	-3	high stability	transchelation in EDTA solution ([2]; pH 6, after 3 days): more than 90%; % intact starting species by incubation time ([5]; competitor TAFC 1000-fold excess, pH 6, 1 h): 0.0 ± 0.0%; fraction transchelated in 1000-fold molar excess of TAFC ([5]; within 1 h): 100%
CC(=O)NC1CCCN(O)C(=O)/C=C(/C)CCOC(=O)C(NC(C)=O)CCCN(O)C(=O)/C=C(/C)CCOC(=O)C(NC(C)=O)CCCN(O)C(=O)/C=C(/C)CCOC1=O (centres unmarked) [[^89Zr]TAFC, triacetylfusarinine C, metal not drawn]	6.8 ± 0.5	no transchelation	99.0 ± 0.1	98.1 ± 0.2	96.0 ± 0.6	94.7 ± 0.3	95.9 ± 0.3	99.6 ± 0.1	99.6 ± 0.1	99.3 ± 0.2	96.9 ± 0.3	98.3 ± 0.1	97.2 ± 0.2	-2	high stability	transchelation in an EDTA challenging experiment ([2]; after 7 days): 3–5%; % intact starting species by incubation time ([2]; pH 6, 7 d): 94.4 ± 0.5%; blood activity [6]: 0.05 ± 0.01 % ID/g; renal retention (kidney) [6]: 0.86 ± 0.48 % ID/g; uptake of bone [6]: 0.04 ± 0.02 % ID/g; % intact starting species by incubation time ([5]; competitor DFO 1000-fold excess, pH 6, 1 h): 96.7 ± 0.2%; % intact starting species by incubation time ([5]; competitor DFO 1000-fold excess, pH 6, 4 h): 91.9 ± 0.3%; % intact starting species by incubation time ([5]; competitor DFO 1000-fold excess, pH 6, 1 d): 74.2 ± 3.0%; % intact starting species by incubation time ([5]; competitor DFO 1000-fold excess, pH 6, 3 d): 53.0 ± 4.1%; % intact starting species by incubation time ([5]; competitor DFO 1000-fold excess, pH 6, 5 d): 43.3 ± 3.5%; % intact starting species by incubation time ([5]; competitor DFO 1000-fold excess, pH 6, 7 d): 40% and 39.8 ± 2.0%
